These results are taken from PMC11882074, “Identification of antimicrobial peptides from the Ambystoma mexicanum displaying antibacterial and antitumor activity” (PLOS One, 2025).

For assay [1], the system named is MRSA, ATCC# 43300. It is filed as cell-based, Staphylococcus aureus. As to the method:
(§1) MIC assays (MRSA, ATCC# 43300/ MSSA, ATCC# 6538) were performed according to CLSI guidelines. […] Thereafter, samples were treated with peptide concentrations ranging from 10, 5, 2.5, 2, 1.75, 1.5 1.25, 1, 0,85, 0.625 and 0.313 µg/mL. Human antimicrobial peptide LL-37 was utilized as a positive control at a concentration of 256 μg/mL, as it is one of the best-known examples of AMP-based drug development. The assay was performed in triplicates. Efficacy was assessed according to the viable bacterial load determined by dilution plating and counting of Colony Forming Units (CFU). The lowest concentration that inhibited bacterial growth after 24 h of incubation is the MIC. Growth curve were performed using a plate reader (Synergy 2, Biotek).

The subject of assay [2] is methicillin-resistant Staphylococcus aureus. The settings on record: no reference given, cited from earlier work. As to the method:
We evaluated the antimicrobial activity of the synthesized peptides by assessing their MIC against Meticillin-Sensitive Staphylococcus aureus and Methicillin-resistant Staphylococcus aureus (MSSA and MRSA). […] The MIC of vancomycin of 2 µg/mL was used as ... || The skin mucus-derived AMPs were initially characterized, and 22 candidate peptides were identified and ranked based on their likelihood of having antibacterial activities (Table 1, Supl. 2).

For assay [3], the system named is MSSA, ATCC# 6538. The assay is described as follows: MIC assay according to CLSI guidelines against MSSA. The format is cell-based, Staphylococcus aureus. As to conditions: 24 h, 37°C; peptides listed in order of lowest to highest MIC; Fig 2A. As to the method:
as §1

Assay [4] relates to T-47D mammary carcinoma cells. Kind of assay: Gene expression analysis, Human Breast Cancer RT2 Profiler PCR array. The settings on record: 10 µg/mL peptide, 24 h, ΔΔCt vs unstimulated control, fold change above 2. It is filed as cell-based. The procedure: Three 75 cm^2 cell culture flasks containing the T-47D and three 75 cm^2 cell culture flasks containing the MCF10A cells were individually stimulated with peptides 1, 12, or 13 at a concentration of 10 µg/mL. An unstimulated cell culture flask was left as a control. Cells were incubated for 24 hours according to standard protocol at 37°C and 5% CO2, in a humidified atmosphere.
After 24 hours, the cells were detached, and RNA was isolated according to the Macherey-Nagel kit. RNA quality was assessed using a NanoDrop 1000 spectrophotometer and gel electrophoresis. To create cDNA the iScript cDNA Synthesis Kit (BioRad) was used and followed according to manufacturer’s instructions. For gene expression analysis, the Human Breast Cancer RT2 Profiler PCR array was used (Qiagen) according to manufacturer’s instructions. On this plate, forward and reverse primers were already included in each well for the respective genes. The qPCR cycling conditions were as follows: 8.5 min at 95°C, […] at 55°C, […] at 72°C and 4°C as holding temperature. Housekeeping gene stability was validated, and results were geometrically averaged. Beta (β)-actin was used for endogenous controls. Expression of carcinogenic markers was quantified relative by the ΔΔCt method and results were normalized to housekeeping genes (Livak and Schmittgen, 2001). The Ct values of the untreated samples were set to zero. The Ct values of the MCF10A samples were subtracted from the Ct values of the T-47D samples. Relative gene expression was calculated from the zero line using Microsoft Excel Version 2016 software (Microsoft Cooperation, Redmond, WA, USA). The resulting higher or lower expressions of the analyzed genes were presented. Gene expression was measured using the BioRad i-Cycler.

In assay [5] the test system is T-47D mammary carcinoma cells. The assay is described as follows: Apoptosis assay (Apo-ONE Homogeneous Caspase-3/7) in T-47D cells. The format is cell-based, human. The settings on record: for apoptotic activity compared to the control in T-47D cells: 1 µg/ml peptide; for apoptotic activity compared to the control in T-47D cells / caspase-3/7 activity (apoptotic induction) in T-47D cells: 24 h stimulation, fluorescence (RFU); for caspase-3/7 activity (apoptotic induction) in T-47D cells: 10 µg/ml peptide; for apoptosis in cancerous breast tissue cells (T-47D): all concentrations tested (1µg, 5µg, and 10µg), 24 h, compared with MCF10A, t-test.

Residues, ends and D or L forms follow the SMILES beside them.

With `CC[C@H](C)[C@H](NC(=O)CNC(=O)CNC(=O)[C@H](CO)NC(=O)[C@H](C)NC(=O)CNC(=O)[C@H](CC(C)C)NC(=O)[C@@H](NC(=O)[C@H](C)NC(=O)[C@@H](N)C(C)C)C(C)C)C(=O)NCC(=O)N[C@@H](CCC(N)=O)C(=O)N1CCC[C@H]1C(=O)N[C@@H](CC(C)C)C(=O)N[C@@H](CO)C(=O)N[C@@H](CC(C)C)C(=O)N[C@@H](CC(C)C)C(=O)N[C@@H](CC(C)C)C(=O)N[C@@H](CCCCN)C(=O)O` [Peptide 1] (H-VAVLGASGGIGQPLSLLLK-OH), the “MIC against methicillin-resistant Staphylococcus aureus (MRSA)” value in assay [1] (ATCC# 43300, 24 h) was determined as 2 µg/mL.
For the compound `CN[C@H](CC(C)C)C(=O)N[C@H]1C(=O)N[C@@H](CC(N)=O)C(=O)N[C@H]2C(=O)N[C@H]3C(=O)N[C@H](C(=O)N[C@H](C(=O)O)c4cc(O)cc(O)c4-c4cc3ccc4O)[C@H](O)c3ccc(c(Cl)c3)Oc3cc2cc(c3O[C@@H]2O[C@H](CO)[C@@H](O)[C@H](O)[C@H]2O[C@H]2C[C@](C)(N)[C@H](O)[C@H](C)O2)Oc2ccc(cc2Cl)[C@H]1O` [vancomycin], the “MIC of vancomycin used as threshold for identifying inhibitory effects” value in assay [2] (threshold for MRSA and MSSA in Fig 2A) is 2 µg/mL. Also, in assay [2] (typical reported range), the “MIC values reported against similar MRSA strains” value is 0.5 to 2 µg/mL.
For the compound “FGANALLGVSLAVcKAGAAEK [Peptide 13, synthetic analog of axolotl skin mucus AMP, rank 13]”, the “inhibitory effect against MSSA (MIC relative to vancomycin threshold of 2 µg/mL)” value in assay [3] is recorded as “Inhibitory effects”. In assay [4], the “genes with significant decrease in expression” value was “IL6 and MMP2”; the “genes with significant increase in expression” value is “BRCA1, BRCA2, NR3C1, SERPINE1, and XBP1”. Moreover, in assay [1] (24 h, 37°C, peptides listed in order of lowest to highest MIC, Fig 2A), the “inhibitory effect against MRSA (MIC relative to vancomycin threshold of 2 µg/mL)” value was “inhibitory effect”. In assay [5], the “apoptotic activity compared to the control in T-47D cells” value is listed as “less distinct”, the “caspase-3/7 activity (apoptotic induction) in T-47D cells” value is reported as “highest levels of caspase-3/7 activity” and the “apoptosis in cancerous breast tissue cells (T-47D)” value is “significantly increased apoptosis”.
With “ILLLcVGEAGDTVQFAEYIQK [Peptide 12, synthetic analog of axolotl skin mucus AMP, rank 12]”, in assay [4], the “genes with significant decrease in expression” value was “CCND2, EGF, GLI1, KRT5, MMP2, and SERPINE1”; the “genes with significant increase in expression” value was “BRCA1, JUN, NR3C1, RB1, SFN, and XBP1”. For the same compound, in assay [5], the “apoptotic activity compared to the control in T-47D cells” value is “increased apoptotic activity compared to the control”, the “caspase-3/7 activity (apoptotic induction) in T-47D cells” value is reported as “highest levels of caspase-3/7 activity” and the “apoptosis in cancerous breast tissue cells (T-47D)” value is listed as “significantly increased apoptosis”.
